One experiment has as its target Mu-type opioid receptor (Rattus norvegicus, UniProt P33535).
In experiment [1] the target is T1, 5-hydroxytryptamine receptor 2C (Sus scrofa, UniProt G7ZKZ7).
T1 sequence (G7ZKZ7 whole entry): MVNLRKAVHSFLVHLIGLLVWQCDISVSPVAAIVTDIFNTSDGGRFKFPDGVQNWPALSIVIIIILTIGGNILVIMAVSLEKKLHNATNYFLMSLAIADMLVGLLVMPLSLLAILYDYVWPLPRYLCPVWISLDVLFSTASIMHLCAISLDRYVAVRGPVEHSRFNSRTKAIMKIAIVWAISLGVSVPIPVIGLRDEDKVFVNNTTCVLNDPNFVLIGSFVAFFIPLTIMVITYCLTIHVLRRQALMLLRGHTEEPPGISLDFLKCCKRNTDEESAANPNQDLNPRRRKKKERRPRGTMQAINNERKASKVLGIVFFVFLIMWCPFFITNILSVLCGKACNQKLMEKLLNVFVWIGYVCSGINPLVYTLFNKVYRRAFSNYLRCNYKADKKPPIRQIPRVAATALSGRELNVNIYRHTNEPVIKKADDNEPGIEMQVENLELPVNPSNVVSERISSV

Experiment [2] concerns the target T2, Alpha-1A adrenergic receptor (Bos taurus, UniProt P18130).
T2 sequence (P18130 whole entry): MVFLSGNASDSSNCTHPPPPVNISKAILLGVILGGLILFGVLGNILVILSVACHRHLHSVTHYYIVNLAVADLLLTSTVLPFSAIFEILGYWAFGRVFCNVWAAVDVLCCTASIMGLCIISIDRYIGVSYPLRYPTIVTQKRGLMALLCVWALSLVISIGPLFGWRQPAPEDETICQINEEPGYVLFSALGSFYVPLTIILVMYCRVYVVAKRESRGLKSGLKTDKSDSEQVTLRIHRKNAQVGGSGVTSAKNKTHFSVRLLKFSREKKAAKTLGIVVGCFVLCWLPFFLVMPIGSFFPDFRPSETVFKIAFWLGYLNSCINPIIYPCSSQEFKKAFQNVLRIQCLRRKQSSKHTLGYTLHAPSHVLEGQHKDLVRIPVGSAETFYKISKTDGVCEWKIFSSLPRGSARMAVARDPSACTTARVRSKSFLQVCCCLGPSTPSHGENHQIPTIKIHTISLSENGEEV

Experiment [3] concerns the target 5-hydroxytryptamine receptor 2A (Rattus norvegicus, UniProt P14842).
The target in experiment [4] is T3, Alpha-2A adrenergic receptor (Bos taurus, UniProt Q28838).
T3 sequence (Q28838 whole entry): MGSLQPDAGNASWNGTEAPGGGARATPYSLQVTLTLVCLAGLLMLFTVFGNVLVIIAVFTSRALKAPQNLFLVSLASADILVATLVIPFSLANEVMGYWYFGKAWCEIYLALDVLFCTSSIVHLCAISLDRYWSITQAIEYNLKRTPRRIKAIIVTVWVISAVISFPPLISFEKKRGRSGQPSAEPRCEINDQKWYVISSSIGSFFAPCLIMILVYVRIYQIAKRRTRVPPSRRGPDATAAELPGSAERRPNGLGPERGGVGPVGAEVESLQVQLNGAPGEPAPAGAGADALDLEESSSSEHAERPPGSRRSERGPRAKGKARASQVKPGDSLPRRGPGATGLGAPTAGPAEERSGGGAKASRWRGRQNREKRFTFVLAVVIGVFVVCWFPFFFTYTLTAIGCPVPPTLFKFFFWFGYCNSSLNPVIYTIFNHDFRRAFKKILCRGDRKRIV

Experiment [5] addresses 5-hydroxytryptamine 1D receptor (Bos taurus, UniProt Q8MI13).

Mu-type opioid receptor, sequence (P33535 whole entry): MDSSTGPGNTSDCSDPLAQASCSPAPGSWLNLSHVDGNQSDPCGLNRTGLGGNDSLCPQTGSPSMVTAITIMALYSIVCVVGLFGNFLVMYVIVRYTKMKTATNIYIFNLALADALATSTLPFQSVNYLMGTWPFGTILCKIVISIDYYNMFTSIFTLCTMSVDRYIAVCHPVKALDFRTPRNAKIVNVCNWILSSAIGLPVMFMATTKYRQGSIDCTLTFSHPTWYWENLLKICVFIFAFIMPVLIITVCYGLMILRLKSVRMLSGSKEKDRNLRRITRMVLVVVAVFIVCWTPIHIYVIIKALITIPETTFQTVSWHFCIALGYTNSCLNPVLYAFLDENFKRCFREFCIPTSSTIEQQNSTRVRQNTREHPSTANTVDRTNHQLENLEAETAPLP
5-hydroxytryptamine receptor 2A, sequence (P14842 whole entry): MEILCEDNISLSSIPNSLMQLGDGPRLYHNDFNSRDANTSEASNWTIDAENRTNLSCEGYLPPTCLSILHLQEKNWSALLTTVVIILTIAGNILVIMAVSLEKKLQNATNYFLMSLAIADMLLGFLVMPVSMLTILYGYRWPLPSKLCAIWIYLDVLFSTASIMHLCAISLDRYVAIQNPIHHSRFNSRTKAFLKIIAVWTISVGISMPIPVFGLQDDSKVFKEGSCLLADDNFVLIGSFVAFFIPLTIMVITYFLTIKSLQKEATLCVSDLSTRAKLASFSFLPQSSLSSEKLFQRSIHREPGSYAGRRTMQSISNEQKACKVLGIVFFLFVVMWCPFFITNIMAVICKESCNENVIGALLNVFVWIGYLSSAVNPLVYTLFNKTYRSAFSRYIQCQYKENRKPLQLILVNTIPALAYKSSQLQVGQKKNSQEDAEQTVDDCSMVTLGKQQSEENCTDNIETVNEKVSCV
5-hydroxytryptamine 1D receptor, sequence (Q8MI13 whole entry): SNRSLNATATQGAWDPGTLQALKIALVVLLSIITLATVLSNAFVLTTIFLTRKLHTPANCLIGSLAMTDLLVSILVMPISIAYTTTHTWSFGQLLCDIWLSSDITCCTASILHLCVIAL

The term Ki denotes the equilibrium dissociation constant of an inhibitor or competing ligand from its target. For the compound `CCN(CC)CCOC(=O)c1cc(Cl)c(N)cc1OC` [SDZ-205557], the Ki at Mu-type opioid receptor is more than 10 µM; in experiment [1], 3.98 µM; in experiment [2], 6.31 µM; in experiment [3] it was more than 10 µM; in experiment [4], more than 10 µM; in experiment [5], 2.51 µM.
